Data on 13 molecules can be found in US9982231B2, “Methods for reprogramming differentiated non-cardiac cells into cardiomyocytes” (The J. David Gladstone Institutes, a testamentary trust …, priority 2013, dated 2018).

In test [1] the target is PDGF receptor tyrosine kinase. The conditions noted are these: PDGFR kinase / PDGF receptor tyrosine kinase; cited from earlier work.
In test [2] the target is epidermal growth factor receptor (EGFR) (Homo sapiens, UniProt P00533). The conditions noted are these: EGFR / EGF receptor kinase; cited from earlier work.
In test [3] the target is SAPK2/p38 (Homo sapiens, UniProt Q16539). The conditions noted are these: CK1 and ALK5 inhibitor vs SAPK2/p38; cited from earlier work.
For test [4], the target named is platelet-derived growth factor receptor β (PDGFRβ) (Homo sapiens, UniProt P09619). As to conditions: cited from earlier work.
For test [5], the system named is contracting cardiomyocytes derived from human fibroblast cells. As to the kind of experiment: Responses of reprogrammed cardiomyocytes to β-adrenergic and muscarinic stimulation. The test is classed as cell-based. As to conditions: cardiomyocytes reprogrammed from CRL-2097. As to the method: Naïve human fibroblast CRL-2097 cells were treated with cardiac reprogramming medium for 6 days followed by treatment with cardiac induction medium 1 for 5 days and then cardiac induction medium 2 for 21-26 days.
Representative beating frequencies of the reprogrammed cells are shown in FIG. 7A before (i) or after β-adrenergic stimulation by its agonist (ii, isoproterenol), or a muscarinic agonist (iii. Carbachol; CCh).

Test [6] has as its target T1, RasGAP (Homo sapiens, UniProt P20936).
T1 sequence (P20936 1-1047): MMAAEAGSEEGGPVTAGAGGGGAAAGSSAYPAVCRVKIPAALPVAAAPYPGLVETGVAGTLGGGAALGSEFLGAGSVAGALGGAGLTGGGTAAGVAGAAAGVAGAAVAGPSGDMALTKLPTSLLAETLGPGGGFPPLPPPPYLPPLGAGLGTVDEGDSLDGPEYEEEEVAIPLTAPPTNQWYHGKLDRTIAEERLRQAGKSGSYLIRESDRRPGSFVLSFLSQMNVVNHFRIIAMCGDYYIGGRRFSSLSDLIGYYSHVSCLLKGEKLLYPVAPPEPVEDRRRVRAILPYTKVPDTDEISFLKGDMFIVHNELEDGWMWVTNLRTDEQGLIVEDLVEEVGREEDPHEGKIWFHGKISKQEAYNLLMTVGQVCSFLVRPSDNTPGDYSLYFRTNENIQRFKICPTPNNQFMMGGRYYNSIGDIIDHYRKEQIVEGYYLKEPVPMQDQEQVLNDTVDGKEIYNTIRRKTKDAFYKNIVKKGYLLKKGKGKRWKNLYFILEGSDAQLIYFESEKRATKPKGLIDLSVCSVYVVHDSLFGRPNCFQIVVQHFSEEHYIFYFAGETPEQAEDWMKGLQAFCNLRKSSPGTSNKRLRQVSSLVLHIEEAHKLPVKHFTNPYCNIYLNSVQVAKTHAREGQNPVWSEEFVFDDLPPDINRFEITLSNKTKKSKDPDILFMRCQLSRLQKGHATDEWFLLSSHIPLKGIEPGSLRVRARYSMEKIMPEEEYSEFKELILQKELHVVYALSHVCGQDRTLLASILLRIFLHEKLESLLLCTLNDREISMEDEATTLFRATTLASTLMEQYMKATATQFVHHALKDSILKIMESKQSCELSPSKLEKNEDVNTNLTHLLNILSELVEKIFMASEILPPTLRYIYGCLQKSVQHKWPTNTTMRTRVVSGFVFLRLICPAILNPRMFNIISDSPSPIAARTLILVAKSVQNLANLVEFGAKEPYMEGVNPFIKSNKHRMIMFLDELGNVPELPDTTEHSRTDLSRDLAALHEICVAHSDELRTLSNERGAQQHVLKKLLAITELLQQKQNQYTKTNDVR
As to conditions: cited from earlier work.

Test [7] concerns the target ERK1 (Homo sapiens, UniProt P27361). As to conditions: cited from earlier work.
Test [8] has as its system human adult dermal fibroblasts (HADFs). As to the kind of experiment: Conversion of human adult dermal fibroblasts into chemically induced cardiomyocytes. The test is classed as cell-based. The text has this: 9C is the reprogramming conditions; CCM. CM-conditioned medium; D, day. […] FIG. 9C graphically illustrates test protocols for ascertaining optimal treatment durations for a combination of sodium butyrate and SMER28 (NS) (n=3). The duration shown on the x-axis of the left graph is days (e.g., D0=day zero; D-14=day 14 of treatment). […] Scale bars, 100 μm.

Test [9] has as its system human foreskin fibroblast cells. Description: Reprogramming with PBIT as a substitute for AS8351. The class given is cell-based. The procedure: FIG. 8A graphically illustrates the knockdown efficiency of the indicated shRNAs in human foreskin fibroblast cells detected by qPCR (n=2). Expression values for each gene were normalized to those measured in control shRNA group. […] Data were collected on day 30. […] Data were collected on day 30. […] FIG. 8E illustrates immunofluorescence staining of cardiomyocyte markers on contracting clusters at day 30 after inducing reprogramming where AS8351 was replaced with 10 μM PBIT. Scale bars, 100 μm. […] Em, membrane potential. Dotted lines indicate 0 mV. F/F0, fluorescence relative to the baseline.
This conclusion was further confirmed by using a KDM5B inhibitor, PBIT (Sayegh et al., 2013) (FIGS. 8C and 8D).
KDM5B catalyzes the demethylation of tri-, di-, and mono-methylation states of H3K4 and facilitates heterochromatin formation (Mosammaparast and Shi, 2010). The inventors have observed that one effect of the reprogramming compositions described herein is on re-opening closed chromatin structures.

Setting [10] is: 7-day pretreatment before reprogramming.

Molecules are shown by their SMILES.

ERK1, sequence (P27361 whole entry, species assumed): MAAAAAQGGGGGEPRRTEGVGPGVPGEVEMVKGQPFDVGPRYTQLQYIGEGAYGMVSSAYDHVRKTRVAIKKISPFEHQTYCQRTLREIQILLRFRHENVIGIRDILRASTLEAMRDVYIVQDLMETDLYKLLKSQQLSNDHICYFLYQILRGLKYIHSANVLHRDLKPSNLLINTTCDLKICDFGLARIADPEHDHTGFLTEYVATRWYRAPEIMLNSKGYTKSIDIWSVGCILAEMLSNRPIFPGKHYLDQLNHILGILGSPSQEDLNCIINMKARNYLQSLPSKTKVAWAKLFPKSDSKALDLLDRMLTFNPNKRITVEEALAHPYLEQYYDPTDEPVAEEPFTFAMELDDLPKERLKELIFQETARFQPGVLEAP
SAPK2/p38, sequence (Q16539 whole entry): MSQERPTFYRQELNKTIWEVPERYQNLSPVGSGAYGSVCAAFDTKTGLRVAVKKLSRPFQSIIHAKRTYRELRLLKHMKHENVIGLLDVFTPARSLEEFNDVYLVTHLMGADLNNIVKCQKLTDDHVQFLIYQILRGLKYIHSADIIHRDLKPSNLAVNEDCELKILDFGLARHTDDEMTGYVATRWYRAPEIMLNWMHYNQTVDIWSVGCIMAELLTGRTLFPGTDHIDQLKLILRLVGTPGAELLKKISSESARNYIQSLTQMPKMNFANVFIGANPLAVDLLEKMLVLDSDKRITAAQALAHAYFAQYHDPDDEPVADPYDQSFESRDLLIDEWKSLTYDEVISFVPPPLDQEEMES
epidermal growth factor receptor (EGFR), sequence (P00533 25-1210, species assumed): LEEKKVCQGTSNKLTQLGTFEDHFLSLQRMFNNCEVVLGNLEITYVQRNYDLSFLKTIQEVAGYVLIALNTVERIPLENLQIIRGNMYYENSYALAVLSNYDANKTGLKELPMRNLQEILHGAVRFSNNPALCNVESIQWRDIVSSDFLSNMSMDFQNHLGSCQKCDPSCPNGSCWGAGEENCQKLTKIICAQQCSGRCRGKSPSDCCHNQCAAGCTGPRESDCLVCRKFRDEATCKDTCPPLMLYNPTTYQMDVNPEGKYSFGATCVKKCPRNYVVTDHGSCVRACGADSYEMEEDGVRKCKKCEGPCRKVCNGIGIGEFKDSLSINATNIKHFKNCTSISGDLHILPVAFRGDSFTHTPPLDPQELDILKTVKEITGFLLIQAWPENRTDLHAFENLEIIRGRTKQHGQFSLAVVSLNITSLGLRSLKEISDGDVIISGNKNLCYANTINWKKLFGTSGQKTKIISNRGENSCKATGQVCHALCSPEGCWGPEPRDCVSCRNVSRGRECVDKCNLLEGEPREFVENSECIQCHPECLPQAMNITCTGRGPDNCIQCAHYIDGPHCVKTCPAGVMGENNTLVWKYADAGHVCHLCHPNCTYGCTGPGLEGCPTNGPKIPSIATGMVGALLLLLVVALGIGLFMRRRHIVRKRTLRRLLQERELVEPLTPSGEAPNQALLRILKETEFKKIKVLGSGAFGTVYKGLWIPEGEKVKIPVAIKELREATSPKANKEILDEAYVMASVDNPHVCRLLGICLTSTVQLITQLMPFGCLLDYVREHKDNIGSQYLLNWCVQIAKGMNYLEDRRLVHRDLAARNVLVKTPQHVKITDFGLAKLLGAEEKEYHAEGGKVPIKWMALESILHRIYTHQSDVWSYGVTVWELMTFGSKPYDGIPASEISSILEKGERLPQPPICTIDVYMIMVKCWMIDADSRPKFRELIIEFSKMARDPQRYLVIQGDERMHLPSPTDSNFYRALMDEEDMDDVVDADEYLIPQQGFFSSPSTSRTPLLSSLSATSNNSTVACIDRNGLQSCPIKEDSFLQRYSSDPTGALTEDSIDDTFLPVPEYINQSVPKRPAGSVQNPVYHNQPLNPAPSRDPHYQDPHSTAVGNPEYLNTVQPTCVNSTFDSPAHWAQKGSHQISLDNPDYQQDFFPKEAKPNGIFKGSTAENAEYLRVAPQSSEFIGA
platelet-derived growth factor receptor β (PDGFRβ), sequence (P09619 33-1106): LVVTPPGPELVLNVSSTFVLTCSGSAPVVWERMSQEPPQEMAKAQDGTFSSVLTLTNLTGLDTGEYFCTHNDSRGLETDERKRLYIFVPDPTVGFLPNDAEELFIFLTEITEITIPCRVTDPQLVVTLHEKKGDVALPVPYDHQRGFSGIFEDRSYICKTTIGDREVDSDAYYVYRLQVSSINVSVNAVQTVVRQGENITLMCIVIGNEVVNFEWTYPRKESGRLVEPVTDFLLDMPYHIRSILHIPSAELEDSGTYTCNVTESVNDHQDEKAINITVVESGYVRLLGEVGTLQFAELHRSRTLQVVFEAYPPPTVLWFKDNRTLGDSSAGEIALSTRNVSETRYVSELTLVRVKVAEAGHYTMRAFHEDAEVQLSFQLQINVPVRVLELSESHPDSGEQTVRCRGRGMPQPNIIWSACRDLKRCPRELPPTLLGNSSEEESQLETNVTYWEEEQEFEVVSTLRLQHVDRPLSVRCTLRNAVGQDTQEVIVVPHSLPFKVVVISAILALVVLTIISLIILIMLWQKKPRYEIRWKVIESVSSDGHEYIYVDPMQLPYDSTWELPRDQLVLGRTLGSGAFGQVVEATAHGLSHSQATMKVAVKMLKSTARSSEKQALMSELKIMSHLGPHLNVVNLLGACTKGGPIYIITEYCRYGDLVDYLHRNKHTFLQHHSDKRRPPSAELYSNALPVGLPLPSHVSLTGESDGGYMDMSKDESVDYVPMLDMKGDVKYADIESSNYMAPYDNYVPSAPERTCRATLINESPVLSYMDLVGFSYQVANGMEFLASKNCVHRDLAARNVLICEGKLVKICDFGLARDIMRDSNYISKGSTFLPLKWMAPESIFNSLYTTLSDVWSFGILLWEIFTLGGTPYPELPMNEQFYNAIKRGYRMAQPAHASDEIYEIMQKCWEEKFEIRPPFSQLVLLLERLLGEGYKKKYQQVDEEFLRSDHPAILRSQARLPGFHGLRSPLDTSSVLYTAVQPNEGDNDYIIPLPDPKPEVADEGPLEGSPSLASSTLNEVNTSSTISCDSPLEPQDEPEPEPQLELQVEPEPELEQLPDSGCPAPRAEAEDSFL

As a reminder, the IC50 is the concentration at which inhibition is half-maximal. Take `COc1cc2ncc(-c3ccccc3)nc2cc1OC` [AG-1296, 6,7-Dimethoxy-3-phenylquinoxaline]: the IC50 in test [1] was 1000 nM. For `N#CC(=Cc1ccc2[nH]ccc2c1)C(N)=C(C#N)C#N` [AG-370, 2-Amino-4-(1H-indol-5-yl)-1,1,3-tricyanobuta-1,3-diene], the IC50 was 820000 nM in test [2] and 20000 nM in test [1].

As for `NC(=O)c1ccc(-c2nc(-c3ccc4c(c3)OCCO4)c(-c3ccccn3)[nH]2)cc1` [D 4476, 4-[4-(2,3-Dihydro-1,4-benzodioxin-6-yl)-5-(2-pyridinyl)-1H-imidazol-2-yl]benzamide], the “selectivity over SAPK2/p38” value in test [3] is given as “greater than 20 fold”. With `Cc1[nH]c(C=C2C(=O)Nc3ccccc32)c(C)c1CCC(=O)O` [SU 6668], the IC50 in test [4] was 60 nM. As for `N#C/C(=C\c1ccc(O)c(O)c1)C(N)=O` [Tyrphostin 46], the half-inhibitory concentration (IC50) in test [1] is 50000 nM. With `C[N+](C)(C)CCOC(N)=O` [Cch, carbachol], in [5], the “effect on beating frequency” value is “opposite, negative effect”. Take `N#CC(C#N)=Cc1ccc(O)c(O)c1` [AG18, [(3,4-Dihydroxyphenyl)methylene]-propenedinitrile]: the IC50 in [1] is 25000 nM. For `CC(C)NCC(O)c1ccc(O)c(O)c1` (centres unmarked) [isoproterenol], the “effect on beating frequency” value in test [5] was “significantly increased”.

By Kd is commonly meant the equilibrium constant for the complex coming apart. As for `Cc1cc(Nc2ncc3c(n2)N(C)C(=O)N(c2cc(NC(=O)c4cccc(C(F)(F)F)c4)ccc2C)C3)n(C)n1` [SC1, N-(3-(7-(1,3-dimethyl-1H-pyrazol-5-ylamino)-1-methyl-2-oxo-1,2-dihydropyrimido[4,5-d]pyrimidin-3(4H)-yl)-4-methylphenyl)-3-(trifluoromethyl)benzamide], the figures for the dissociation constant Kd in test [6] and in test [7] were 98 nM and 212 nM, respectively.

For the molecule `C=CCNc1ncnc2ccc(Br)cc12` [SMER28], in test [8] (setting [10]), the “generation of beating cardiac clusters from HADFs” value was “enabled the generation of beating cardiac clusters” and the “proliferation of HADFs” value was “increased the proliferation of HADFs”.

In the case of `CC(C)(C)c1cc(C=C(C#N)C#N)cc(C(C)(C)C)c1O` [Tyrphostin 9], in [1], the IC50 is 1200 nM. Regarding `CCCC(=O)[O-].[Na+]` [sodium butyrate (NaB), sodium butyrate], the “induction efficiency of HADFs” value in [8] (pretreatment in combination with SMER28) is “further increased the induction efficiency of HADFs”.

`Cc1ccc(-n2sc3ccccc3c2=O)cc1` [PBIT, 2-(4-methylphenyl)-1,2-benzisothiazol-3(2H)-one]: the electrophysiological features entry in [9] (10 μM PBIT as a substitute for AS8351) was “exhibited CM-like electrophysiological features”. The “expression of cardiac proteins” value in test [9] (10 μM PBIT as a substitute for AS8351, day 30) is given as “expressed a broad panel of cardiac proteins”.
